Data from ChEMBL document CHEMBL6182947, “Discovery of Phloroglucinol Derivatives as a New Type of Nonnucleoside Inhibitors with Anti-herpes Simplex Virus Type 1 Activity” (J Med Chem, 2025).
Calls of active or inactive are those of the source. The calls are words filed in the database; no cut-off is given here.

Legend:
[1] = system: Vero; experiment: Suppression of phosphorylation of RNA polymerase at serine 2 C-terminal domain in HSV1 infected African green monkey Vero cells at 0.25 to 2 uM measured after 12 hrs incubation by Western blot analysis; assay type: cell-based; details: Human alphaherpesvirus 1, dose 0.25-2 µM
[2] = Toxicity in BALB/c mouse assessed as toxic side effects at 10 to 20 mg/kg, applied topically measured for 5 to 9 days post-infection; assay type: organism-based; details: in vivo, topical_or_ocular, dose lower 10 mg/kg, time lower 5 day, dose upper 20 mg/kg, time upper 9 day
[3] = system: Human alphaherpesvirus 1; experiment: In vivo antiviral activity against HSV1 infected in BALB/c mouse right ear by scratch assessed as reduction in viral titer in ear tissue homogenate at 10 to 20 mg/kg, applied topically measured for 5 to 9 days post-infection; assay type: functional, organism-based; details: dose 10-20 mg/kg, time 5-9 day
[4] = system: Human alphaherpesvirus 2; experiment: Antiviral activity against HSV2 infected in African green monkey Vero cells assessed as reduction of virus-induced cytopathic effect measured after 48 hrs of incubation; assay type: functional, organism-based; details: Human alphaherpesvirus 2, Vero
[5] = system: Human alphaherpesvirus 1; experiment: Antiviral activity against HSV1 expressing GFP infected in African green monkey Vero cells assessed as fold reduction in viral titer green fluorescence protein expression at 2 uM measured after 48 hrs post-infection by immunofluorescence based fluorescence microscopy; assay type: functional
[6] = system: Human alphaherpesvirus 1; experiment: Antiviral activity against HSV1 infected in African green monkey Vero cells assessed as reduction of virus yield at 2 uM treated for 0 to 14 hrs of post-infection; assay type: functional, organism-based; details: time 0-14 hrs
[7] = system: Human alphaherpesvirus 1; experiment: In vivo antiviral activity against HSV1 infected in BALB/c mouse right ear by scratch assessed as reduction in ear thickness at 10 to 20 mg/kg, applied topically measured for 5 to 9 days post-infection; assay type: functional, organism-based; details: dose 10-20 mg/kg, time 5-9 day
[8] = system: Vero; experiment: Inhibition of CDK7/Cyclin T1 in African green monkey Vero cells infected with HSV1 assessed as catalytic hydrolysis of ATP measured after 12 hrs by Western blot analysis; assay type: cell-based; details: Chlorocebus aethiops
[9] = system: Human alphaherpesvirus 1; experiment: In vivo antiviral activity against HSV1 infected in BALB/c mouse right ear by scratch assessed as reduction in skin lesions at 10 to 20 mg/kg, applied topically measured for 5 to 9 days post-infection; assay type: functional, organism-based; details: dose 10-20 mg/kg, time 5-9 day
[10] = system: Human alphaherpesvirus 1; experiment: Antiviral activity against HSV1 expressing GFP infected in African green monkey Vero cells assessed as fold reduction in viral titer green fluorescence protein expression measured after 48 hrs post-infection by immunofluorescence based fluorescence microscopy; assay type: functional
[11] = system: Human alphaherpesvirus 1; experiment: Antiviral activity against ACV-resistant HSV1 153 infected in African green monkey Vero cells assessed as reduction of virus-induced cytopathic effect measured after 48 hrs of incubation; assay type: functional, organism-based; details: Human alphaherpesvirus 1, 153, Vero
[12] = system: Human alphaherpesvirus 1; experiment: In vivo antiviral activity against HSV1 infected in BALB/c mouse right ear by scratch assessed as reduction in gD glycoprotein level at 10 to 20 mg/kg, applied topically measured for 5 to 9 days post-infection; assay type: functional, organism-based; details: dose 10-20 mg/kg, time 5-9 day
[13] = system: Human alphaherpesvirus 1; experiment: Antiviral activity against HSV1 infected in African green monkey Vero cells assessed as inhibition of transcription by measuring viral gene level at 0.25 to 2 uM by RT-PCR analysis relative to control; assay type: functional, organism-based; details: dose 0.25-2 µM
[14] = system: Human alphaherpesvirus 1; experiment: Antiviral activity against HSV1 infected in African green monkey Vero cells assessed as reduction of virus-induced cytopathic effect measured after 48 hrs of incubation; assay type: functional, organism-based; details: Human alphaherpesvirus 1, Vero
[15] = system: Vero; experiment: Suppression of phosphorylation of RNA polymerase at serine 5 C-terminal domain in HSV1 infected African green monkey Vero cells measured after 12 hrs incubation by Western blot analysis; assay type: cell-based; details: Human alphaherpesvirus 1, dose 0.25-2 µM
[16] = Cytotoxicity against African green monkey Vero cells assessed as cell viability measured after 24 hrs incubation by MTT assay; assay type: toxicity, cell-based; details: chlorocebus sabaeus
[17] = system: Human alphaherpesvirus 1; experiment: In vivo antiviral activity against HSV1 infected in BALB/c mouse right ear by scratch assessed as increase in body weight at 10 to 20 mg/kg, applied topically measured for 5 to 9 days post-infection relative to control; assay type: functional, organism-based; details: dose 10-20 mg/kg, time 5-9 day
[18] = Selectivity index, ratio of CC50 for Cytotoxicity against african green monkey Vero cells to IC50 for Antiviral activity against HSV1 infected in African green monkey Vero cells; assay type: toxicity, cell-based; details: read-out: Selectivity Index
[19] = system: Human alphaherpesvirus 1; experiment: Antiviral activity against ACV-resistant HSV1 Blue infected in African green monkey Vero cells assessed as reduction of virus-induced cytopathic effect measured after 48 hrs of incubation; assay type: functional, organism-based; details: Human alphaherpesvirus 1, Blue
[20] = system: Human alphaherpesvirus 1; experiment: Antiviral activity against HSV1 expressing GFP infected in African green monkey Vero cells assessed as reduction in green fluorescence protein expression at 1 uM measured after 24 hrs post-infection by immunofluorescence based fluorescence microscopy; assay type: functional, organism-based

Question: For `CC(C)CC(=O)c1c(O)cc2c(c1O)C(CC(C)C)C1=C(O2)C(C)(C)C(=O)C(C)(C)C1=O` (racemic), which Activity [1] is on record?
Answer: Its Activity is “Active; Compound Showed Only Slight Inhibition”.

Question: What about the Activity [2] of the same compound?
Answer: The Activity was “Non-toxic”.

Question: And the Activity [3]?
Answer: The Activity was “Active”.

Question: And the IC50 [4]?
Answer: The IC50 was 350 nM.

Question: What about the Activity [5] of the same compound?
Answer: Its Activity is “Active”.

Question: And the Activity [6]?
Answer: The Activity was “Active”.

Question: And the Activity [7]?
Answer: Its Activity is “Active”.

Question: And the Activity [8]?
Answer: Its Activity is “inactive”.

Question: And the Activity [9]?
Answer: Its Activity is “Active”.

Question: And the “fold change (FC)” value [10]?
Answer: Its value is 3943.

Question: What about the IC50 [11] of the same compound?
Answer: The IC50 was 300 nM.

Question: What about the Activity [12] of the same compound?
Answer: Its Activity is “Active”.

Question: And the Activity [13]?
Answer: The Activity was “Active”.

Question: And the IC50 [14]?
Answer: Its IC50 is 390 nM.

Question: And the Activity [15]?
Answer: The Activity was “Dose-dependent-effect”.

Question: And the CC50 at 24 h [16]?
Answer: The CC50 at 24 h was 7000 nM.

Question: What about the Activity [17] of the same compound?
Answer: The Activity was “Active”.

Question: And the selectivity ratio [18]?
Answer: Its selectivity ratio is 17.9.

Question: What about the IC50 [19] of the same compound?
Answer: Its IC50 is 300 nM.

Question: And the Activity [20]?
Answer: The Activity was “Active”.
